From patent publication US20100056627A1, “PHARMACEUTICAL COMPOSITIONS OF ALKYL GALLATES” (priority 2006, published 2010)
≈ marks a conversion by molar mass, not a printed value. Where “and” joins values, the source holds several entries; their conditions need not be identical. Identical values can stand only once. Like-named read-outs stand apart in the source and are kept apart here.

Assays:
[1] = system: clinical isolate MRSA; experiment: Oxacillin MIC against MRSA with concomitant octyl gallate and short-chain alkyl gallate (β-lactam sensitivity, ILSMR effect); assay type: cell-based, Staphylococcus aureus
[2] = system: gram-positive and gram-negative bacteria; experiment: MIC (minimum growth inhibition concentration), 2-fold serial agar plate dilution on Mueller Hinton II Agar, with concomitant alkyl gallate and salt; details: for MIC: 24 h
[3] = system: clinical isolates MRSA and MSSA; details: for Recrystalized octyl gallate MIC: sodium ascorbate 0.5 mg/ml; for MIC50 / MIC: Staphylococcus aureus, MRSA|MSSA; for MIC50: read-out: MIC50, 24 h MIC, MRSA, trisodium citrate medium
[4] = clinical isolate MRSA, Isoamyl gallate 6.25
[5] = clinical isolate MRSA, Isoamyl gallate 12.5
[6] = clinical isolate MRSA, Isoamyl gallate 25
[7] = clinical isolate MRSA, Propyl gallate 6.25
[8] = clinical isolate MRSA, Propyl gallate 12.5
[9] = clinical isolate MRSA, Propyl gallate 25
[10] = clinical isolate MRSA, short-chain alkyl gallate None

## CCCCCCCCOC(=O)c1cc(O)c(O)c(O)c1 [octyl gallate]
[1]; clinical isolate MRSA
  octyl gallate concentration with growth inhibitory effect in all the bacterial strains with only octyl gallate: 25 µg/mL
[1]; [4]
  Concentration of octyl gallate for concomitant use necessary for obtaining oxacillin MIC not higher than 2 μg/mL, C50: >12.5 µg/mL
  Concentration of octyl gallate for concomitant use necessary for obtaining oxacillin MIC not higher than 2 μg/mL, C100: >12.5 µg/mL
[1]; [5]
  Concentration of octyl gallate for concomitant use necessary for obtaining oxacillin MIC not higher than 2 μg/mL, C50: >12.5 µg/mL
  Concentration of octyl gallate for concomitant use necessary for obtaining oxacillin MIC not higher than 2 μg/mL, C100: >12.5 µg/mL
[1]; [6]
  Concentration of octyl gallate for concomitant use necessary for obtaining oxacillin MIC not higher than 2 μg/mL, C50: 1.56 µg/mL
  Concentration of octyl gallate for concomitant use necessary for obtaining oxacillin MIC not higher than 2 μg/mL, C100: 1.56 µg/mL
  Concentration of octyl gallate for concomitant use necessary for obtaining oxacillin MIC not higher than 2 μg/mL, Range: 1.56 µg/mL
[1]; [7]
  Concentration of octyl gallate for concomitant use necessary for obtaining oxacillin MIC not higher than 2 μg/mL, C50: >12.5 µg/mL
  Concentration of octyl gallate for concomitant use necessary for obtaining oxacillin MIC not higher than 2 μg/mL, C100: >12.5 µg/mL
[1]; [8]
  Concentration of octyl gallate for concomitant use necessary for obtaining oxacillin MIC not higher than 2 μg/mL, C50: >12.5 µg/mL
  Concentration of octyl gallate for concomitant use necessary for obtaining oxacillin MIC not higher than 2 μg/mL, C100: >12.5 µg/mL
  Concentration of octyl gallate for concomitant use necessary for obtaining oxacillin MIC not higher than 2 μg/mL, Range: 6.25 to 12.5 µg/mL
[1]; [9]
  Concentration of octyl gallate for concomitant use necessary for obtaining oxacillin MIC not higher than 2 μg/mL, C50: 3.13 µg/mL
  Concentration of octyl gallate for concomitant use necessary for obtaining oxacillin MIC not higher than 2 μg/mL, C100: 6.25 µg/mL
  Concentration of octyl gallate for concomitant use necessary for obtaining oxacillin MIC not higher than 2 μg/mL, Range: 1.56 to 6.25 µg/mL
[1]; [10]
  Concentration of octyl gallate for concomitant use necessary for obtaining oxacillin MIC not higher than 2 μg/mL, C50: 25 µg/mL
  Concentration of octyl gallate for concomitant use necessary for obtaining oxacillin MIC not higher than 2 μg/mL, C100: 25 µg/mL
  Concentration of octyl gallate for concomitant use necessary for obtaining oxacillin MIC not higher than 2 μg/mL, Range: 25 µg/mL
[1]; in the coexistence of propyl gallate or isoamyl gallate
  octyl gallate concentration at which a decrease of the MIC value of oxacillin to MRSA occurs: 1.56 µg/mL
[1]; isoamyl gallate coexisting at 25 μg/mL
  Concentration of octyl gallate for concomitant use for oxacillin MIC of 2 μg/mL or lower, 100% of MRSA strains (C100): 1.56 µg/mL
[1]; propyl gallate coexisting at 25 μg/mL
  Concentration of octyl gallate for concomitant use for oxacillin MIC of 2 μg/mL or lower, 100% of MRSA strains (C100): 6.25 µg/mL
[1]; several bacterial strains, oxacillin with octyl gallate
  octyl gallate concentration at which an ILSMR effect was confirmed: 12.5 µg/mL
[2]; read-out: Octyl gallate MIC, NaCl 4%, isoamyl gallate 100 μg/mL
  MIC: 0.98 µg/mL
[2]; read-out: Recrystalized octyl gallate MIC, Dec. 24, 2007, MHA (+0.9% disodium hydrogen citrate), sodium ascorbate 0.5 mg/ml, propyl gallate 300 mg/L
  MIC: > 100 µg/mL
[2]; as the amount of NaCl added (2 to 4%) increases (Table 4)
  change of MIC value of octyl gallate by isoamyl gallate: markedly decreased
[2]; propyl gallate 300 mg/L, except for three strains of bacteria
  effect on bacteria of concomitant use with propyl gallate: completely killed
[2]; with isoamyl gallate at or below MIC and NaCl
  MIC of octyl gallate lower than that of chlorhexidine gluconate, maximum: ≤ 640 times
[3]; MHA (+0.9% disodium hydrogen citrate), DDW, 24 h
  Recrystalized octyl gallate MIC: 0.625 µg/mL and 1.25 µg/mL
[3]; MHA (+0.9% trisodium citrate), propyl gallate 100 mg/L (with J-1216), 24 h
  Recrystalized octyl gallate MIC: 1.25 µg/mL
[3]; MHA (+0.9% trisodium citrate), propyl gallate 200 mg/L (with J-1216), 24 h
  Recrystalized octyl gallate MIC: 0.625 µg/mL and 1.25 µg/mL
[3]; MRSA (21 strains) and MSSA (8 strains), concomitant propyl gallate 50 mg/L, disodium hydrogen citrate
  octyl gallate concentration at which all strains were killed: 1.25 mg/L
[3]; 24 h, J-1216 600 mg/L
  MIC50: 20 µg/mL (≈ 70.8 µM)
[3]; 24 h, propyl gallate 75 mg/L
  MIC50: 10 µg/mL (≈ 35.4 µM)
[3]; 24 h, propyl gallate 100 mg/L
  MIC50: 2.5 µg/mL (≈ 8.85 µM)
[3]; 24 h, propyl gallate 200 mg/L
  MIC50: 2.5 µg/mL (≈ 8.85 µM)
[3]; 24 h, read-out: MIC100, 24 h MIC, MRSA, disodium hydrogen citrate medium, DDW
  MIC: 2.5 µg/mL (≈ 8.85 µM)
[3]; 24 h, read-out: MIC100, 24 h MIC, MRSA, disodium hydrogen citrate medium, propyl gallate 50 mg/L
  MIC: 1.25 µg/mL (≈ 4.43 µM)
[3]; 24 h, read-out: MIC100, 24 h MIC, MRSA, trisodium citrate medium, J-1216 600 mg/L
  MIC: 50 µg/mL (≈ 177 µM)
[3]; 24 h, read-out: MIC100, 24 h MIC, MRSA, trisodium citrate medium, propyl gallate 75 mg/L
  MIC: 10 µg/mL (≈ 35.4 µM)
[3]; 24 h, read-out: MIC100, 24 h MIC, MRSA, trisodium citrate medium, propyl gallate 100 mg/L
  MIC: 5 µg/mL (≈ 17.7 µM)
[3]; 24 h, read-out: MIC100, 24 h MIC, MRSA, trisodium citrate medium, propyl gallate 200 mg/L
  MIC: 5 µg/mL (≈ 17.7 µM)
[3]; 24 h, read-out: Octyl gallate MIC, CAMHA, isoamyl gallate 50 μg/mL, 24 h
  MIC: ≤ 0.0244 µg/mL
[3]; 24 h, read-out: Recrystalized octyl gallate MIC, MHA (+0.9% disodium hydrogen citrate), sodium ascorbate 0.5 mg/ml, DDW, 24 h
  MIC: 2.5 µg/mL (≈ 8.85 µM)
[3]; 24 h, read-out: Recrystalized octyl gallate MIC, MHA (+0.9% disodium hydrogen citrate), sodium ascorbate 0.5 mg/ml, propyl gallate 50 mg/L, 24 h
  MIC: 1.25 µg/mL (≈ 4.43 µM)
[3]; 24 h, read-out: Recrystalized octyl gallate MIC, MHA (+0.9% trisodium citrate), sodium ascorbate 0.5 mg/ml, propyl gallate 100 mg/L (with J-1216), 24 h
  MIC: 2.5 µg/mL (≈ 8.85 µM)
[3]; 24 h, read-out: Recrystalized octyl gallate MIC, MHA (+0.9% trisodium citrate), sodium ascorbate 0.5 mg/ml, propyl gallate 200 mg/L (with J-1216), 24 h
  MIC: 2.5 µg/mL (≈ 8.85 µM)
[3]; 48 h, read-out: Octyl gallate MIC, Isoamyl G none, 48 h, strain = c6 of each row
  MIC: 31.2 µg/mL (≈ 111 µM)
[3]; disodium hydrogen citrate medium, DDW
  MIC Range, 24 h MIC, MRSA: 0.625 to 2.5 µg/mL
